# Measured values from patent US8293786B2 (Alltranz Inc., priority 2007, dated 2012).
# Legend:
# [1] = Plasma stability of cannabidiol prodrugs (bioconversion to parent drug); type: in vitro ADME; conditions: Table 20, di-prodrug in plasma; for % mono-prodrug at time (h): mono-prodrug formed
# Method: An approximated 1 mg/mL stock solution of each prodrug was prepared in 100 μL of ethanol and 900 μL of acetonitrile. Ten (10) μL of stock was spiked into 1 mL of plasma and vortexed. The samples were kept sealed in an amber vial and samples were obtained to analyze for bioconversion to parent drug.
# [2] = test system: human abdominal skin; assay: In vitro human skin permeation and skin disposition, flow-through diffusion cells (Examples 2, 2A, 2B); type: in vitro ADME
# In short: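 Dermatomed (~200 μm) frozen human abdominal skin was mounted in flow-through cells at 32° C (0.95 cm^2), stratum corneum to donor. Donors were 0.10 mL 45:4:1 PG:H2O:IPM solution or 50 μL gel; receiver was 40% PEG 400 (HEPES-Hanks pH 7.4 or aqueous) with gentamicin at 0.8 mL/h. Samples were taken every 3 h for 24-42 h; skin accumulation was expressed as μmol/g wet tissue.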
# [3] = Table 18, 90:8:2 PG:H2O:IPM donor solution, 40% aqueous PEG 400 receiver fluid, CBD from applied prodrug
# [4] = Table 18, 90:8:2 PG:H2O:IPM donor solution, 40% aqueous PEG 400 receiver fluid, mono-prodrug from applied di-prodrug
# [5] = Table 18, 90:8:2 PG:H2O:IPM donor solution, 40% aqueous PEG 400 receiver fluid, prodrug applied, as total cannabidiol equivalents
compound,measurement,setting,value
"C=C(C)[C@@H]1CCC(C)=C[C@H]1c1c(OC=O)cc(CCCCC)cc1OC=O [ALL00145, CBD Diformate]",% mono-prodrug at time (h),[1]; 0 h,40%
same,% mono-prodrug at time (h),[1]; 0.5 h,44%
same,% mono-prodrug at time (h),[1]; 22 h,23%
same,% mono-prodrug at time (h),[1]; 24 h,11%
same,% Di-prodrug at time (h),[1]; 0 h,60%
same,% Di-prodrug at time (h),[1]; 0.5 h,45%
same,% Di-prodrug at time (h),[1]; 22 h,37%
same,% Di-prodrug at time (h),[1]; 24 h,13%
same,30 h cumulative amt,[2]; [3],17.2 ± 4.5 nmol
same,30 h skin conc,[2]; [3],8.8 ± 7.0 µmol/g
same,Flux,[2]; [3],1.4 ± 0.1 nmol/cm^2/h
same,Lag time,[2]; [3],17.4 ± 3.3 h
same,30 h skin conc,"[2]; Table 18, 90:8:2 PG:H2O:IPM donor solution, 40% aqueous PEG 400 receiver fluid, as applied compound (CBD or intact prodrug)",3.8 ± 2.1 µmol/g
same,30 h cumulative amt,[2]; [4],17.5 ± 6.1 nmol
same,30 h skin conc,[2]; [4],23.5 ± 19.3 µmol/g
same,Flux,[2]; [4],1.5 ± 0.6 nmol/cm^2/h
same,Lag time,[2]; [4],19.0 ± 1.9 h
same,30 h cumulative amt,[2]; [5],34.7 ± 7.0 nmol
same,30 h skin conc,[2]; [5],36.1 ± 28.2 µmol/g
same,Flux,[2]; [5],2.9 ± 0.7 nmol/cm^2/h
same,Lag time,[2]; [5],17.2 ± 2.5 h
same,Flux enhancement,"[2]; Table 18, 90:8:2 PG:H2O:IPM donor solution, 40% aqueous PEG 400 receiver fluid, total cannabidiol versus cannabidiol",0.35
same,detected in the skin as,[2]; in donor solution,"prodrug, mono-substituted prodrug, ALL00146, and cannabidiol"
same,flux compared to cannabidiol,[2]; in donor solution,did not increase the flux
same,lag time compared to cannabidiol,[2]; in donor solution,wasn't decreased
same,share permeated through the skin as cannabidiol,[2]; in donor solution,approximately 50%
same,share permeated through the skin as mono-substituted prodrug,[2]; in donor solution,approximately 50%
same,total skin concentrations compared to cannabidiol,[2]; in donor solution,higher
